Experiments:
[1] = system: rutabaga (Brassica napus var. napobrassica, BRSNA); assay: Example 5 greenhouse trials, postemergence visual injury; settings: for % Visual Injury Obs / Visual Injury Obs: BRSNA
[2] = system: winter oilseed rape (Brassica napus, BRSNW); assay: as above; settings: for % Visual Injury Obs / Visual Injury Obs: BRSNW
[3] = system: kale/Chinese kale (Brassica alboglabra, BRSAG); assay: as above; settings: for % Visual Injury Obs / Visual Injury Obs: BRSAG
[4] = system: turnip or Polish canola (Brassica rapa, BRSRR); assay: as above; settings: for % Visual Injury Obs / Visual Injury Obs: BRSRR
[5] = system: spring oilseed rape (Brassica napus, BRSNS); assay: Example 4 field trials (Europe), postemergence crop safety, visual phytotoxicity
[6] = system: Nexera™ canola (Brassica napus, BRSNN-NEX); assay: Example 5 greenhouse trials, postemergence visual injury; settings: for % Visual Injury Obs / Visual Injury Obs: BRSNN-NEX
[7] = system: winter oilseed rape (Brassica napus, BRSNW); assay: Example 4 field trials (Europe), postemergence crop safety, visual phytotoxicity; settings: for Mean % Visual Injury / Mean % Visual Deformation: alone or mixed
[8] = system: Roundup Ready® canola (Brassica napus, RR-BRSNN); assay: Example 5 greenhouse trials, postemergence visual injury; settings: for % Visual Injury Obs / Visual Injury Obs: RR-BRSNN
[9] = halauxifen-methyl alone 2.5 g ai/ha
[10] = halauxifen-methyl alone 5 g ai/ha
[11] = halauxifen-methyl alone 10 g ai/ha

COC(=O)c1nc(-c2ccc(Cl)c(OC)c2F)cc(N)c1Cl [Halauxifen-methyl, methyl 4-amino-3-chloro-6-(4-chloro-2-fluoro-3-methoxyphenyl)-2-pyridineccarboxylate]
% Visual Injury Obs ([1]; 2.5 g ai/ha alone, 20-22 d): 5% | % Visual Injury Obs ([1]; 5 g ai/ha alone, 20-22 d): 5% | % Visual Injury Obs ([1]; 10 g ai/ha alone, 20-22 d): 10% | % Visual Injury Obs ([1]; halauxifen-methyl 2.5 g ai/ha): 5% | Visual Injury Obs ([1]; halauxifen-methyl 2.5 g ai/ha): 5% | % Visual Injury Obs ([1]; halauxifen-methyl 5 g ai/ha): 5% | Visual Injury Obs ([1]; halauxifen-methyl 5 g ai/ha): 5% | % Visual Injury Obs ([1]; halauxifen-methyl 10 g ai/ha): 10% | Visual Injury Obs ([1]; halauxifen-methyl 10 g ai/ha): 10% | Percent (%) Visual Injury BRSNA Obs [1, 9]: 5% | Percent (%) Visual Injury BRSNA Obs [1, 10]: 5% | Percent (%) Visual Injury BRSNA Obs [1, 11]: 10% | % Visual Injury Obs ([2]; 2.5 g ai/ha alone, 20-22 d): 7% | % Visual Injury Obs ([2]; 5 g ai/ha alone, 20-22 d): 10% | % Visual Injury Obs ([2]; 10 g ai/ha alone, 20-22 d): 14% | % Visual Injury Obs ([2]; halauxifen-methyl 2.5 g ai/ha): 7% | Visual Injury Obs ([2]; halauxifen-methyl 2.5 g ai/ha): 7% | % Visual Injury Obs ([2]; halauxifen-methyl 5 g ai/ha): 10% | Visual Injury Obs ([2]; halauxifen-methyl 5 g ai/ha): 10% | % Visual Injury Obs ([2]; halauxifen-methyl 10 g ai/ha): 14% | Visual Injury Obs ([2]; halauxifen-methyl 10 g ai/ha): 14% | Percent (%) Visual Injury BRSNW Obs [2, 9]: 7% | Percent (%) Visual Injury BRSNW Obs [2, 10]: 10% | Percent (%) Visual Injury BRSNW Obs [2, 11]: 14% | % Visual Injury Obs ([3]; 2.5 g ai/ha alone, 20-22 d): 6% | % Visual Injury Obs ([3]; 5 g ai/ha alone, 20-22 d): 10% | % Visual Injury Obs ([3]; 10 g ai/ha alone, 20-22 d): 16% | % Visual Injury Obs ([3]; halauxifen-methyl 2.5 g ai/ha): 6% | Visual Injury Obs ([3]; halauxifen-methyl 2.5 g ai/ha): 6% | % Visual Injury Obs ([3]; halauxifen-methyl 5 g ai/ha): 10% | Visual Injury Obs ([3]; halauxifen-methyl 5 g ai/ha): 10% | % Visual Injury Obs ([3]; halauxifen-methyl 10 g ai/ha): 16% | Visual Injury Obs ([3]; halauxifen-methyl 10 g ai/ha): 16% | Percent (%) Visual Injury BRSAG Obs [3, 9]: 6% | Percent (%) Visual Injury BRSAG Obs [3, 10]: 10% | Percent (%) Visual Injury BRSAG Obs [3, 11]: 16% | % Visual Injury Obs ([4]; 2.5 g ai/ha alone, 20-22 d): 5% | % Visual Injury Obs ([4]; 5 g ai/ha alone, 20-22 d): 6% | % Visual Injury Obs ([4]; 10 g ai/ha alone, 20-22 d): 10% | % Visual Injury Obs ([4]; halauxifen-methyl 2.5 g ai/ha): 5% | Visual Injury Obs ([4]; halauxifen-methyl 2.5 g ai/ha): 5% | % Visual Injury Obs ([4]; halauxifen-methyl 5 g ai/ha): 6% | Visual Injury Obs ([4]; halauxifen-methyl 5 g ai/ha): 6% | % Visual Injury Obs ([4]; halauxifen-methyl 10 g ai/ha): 10% | Visual Injury Obs ([4]; halauxifen-methyl 10 g ai/ha): 10% | Percent (%) Visual Injury BRSRR Obs [4, 9]: 5% | Percent (%) Visual Injury BRSRR Obs [4, 10]: 6% | Percent (%) Visual Injury BRSRR Obs [4, 11]: 10% | Mean % Visual Growth Inhibition ([5]; Trial 1, 14DAA1, 5 g ae/ha alone): 3% | Mean % Visual Growth Inhibition ([5]; Trial 1, 14DAA1, 6 g ae/ha alone): 3% | Mean % Visual Growth Inhibition ([5]; Trial 1, 14DAA1, 10 g ae/ha alone): 3% | Mean % Visual Growth Inhibition ([5]; Trial 1, 14DAA1, 12 g ae/ha alone): 3% | Mean % Visual Growth Inhibition ([5]; Trial 2, 17DAA1, 5 g ae/ha alone): 10% | Mean % Visual Growth Inhibition ([5]; Trial 2, 24DAA1, 5 g ae/ha alone): 10% | % Visual Injury Obs ([6]; 2.5 g ai/ha alone, 20-22 d): 15% | % Visual Injury Obs ([6]; 5 g ai/ha alone, 20-22 d): 20% | % Visual Injury Obs ([6]; 10 g ai/ha alone, 20-22 d): 23% | % Visual Injury Obs ([6]; halauxifen-methyl 2.5 g ai/ha): 15% | Visual Injury Obs ([6]; halauxifen-methyl 2.5 g ai/ha): 15% | % Visual Injury Obs ([6]; halauxifen-methyl 5 g ai/ha): 20% | Visual Injury Obs ([6]; halauxifen-methyl 5 g ai/ha): 20% | % Visual Injury Obs ([6]; halauxifen-methyl 10 g ai/ha): 23% | Visual Injury Obs ([6]; halauxifen-methyl 10 g ai/ha): 23% | Percent (%) Visual Injury BRSNN-NEX Obs [6, 9]: 15% | Percent (%) Visual Injury BRSNN-NEX Obs [6, 10]: 20% | Percent (%) Visual Injury BRSNN-NEX Obs [6, 11]: 23% | Mean % Visual Injury ([7]; 6DAA1, halauxifen-methyl 5, clopyralid-olamine 120 g ae/ha): 1% | Mean % Visual Injury ([7]; 7DAA1, halauxifen-methyl 5, clopyralid-olamine 120 g ae/ha): 1% | Mean % Visual Injury ([7]; 19DAA1, halauxifen-methyl 5, clopyralid-olamine 120 g ae/ha): 1% | Mean % Visual Growth Inhibition ([7]; 85DAA1, 5 g ae/ha alone): 5.0% | Mean % Visual Deformation ([7]; Trial 1, 27DAA1, halauxifen-methyl 5, clopyralid-olamine 120 g ae/ha): 0% | Mean % Visual Deformation ([7]; Trial 2, 6DAA1, halauxifen-methyl 5, clopyralid-olamine 120 g ae/ha): 1% | Mean % Visual Deformation ([7]; Trial 2, 7DAA1, halauxifen-methyl 5, clopyralid-olamine 120 g ae/ha): 1% | % Visual Injury Obs ([8]; 2.5 g ai/ha alone, 20-22 d): 11% | % Visual Injury Obs ([8]; 5 g ai/ha alone, 20-22 d): 14% | % Visual Injury Obs ([8]; 10 g ai/ha alone, 20-22 d): 21% | % Visual Injury Obs ([8]; halauxifen-methyl 2.5 g ai/ha): 11% | Visual Injury Obs ([8]; halauxifen-methyl 2.5 g ai/ha): 11% | % Visual Injury Obs ([8]; halauxifen-methyl 5 g ai/ha): 14% | Visual Injury Obs ([8]; halauxifen-methyl 5 g ai/ha): 14% | % Visual Injury Obs ([8]; halauxifen-methyl 10 g ai/ha): 21% | Visual Injury Obs ([8]; halauxifen-methyl 10 g ai/ha): 21% | Percent (%) Visual Injury RR-BRSNN Obs [8, 9]: 11% | Percent (%) Visual Injury RR-BRSNN Obs [8, 10]: 14% | Percent (%) Visual Injury RR-BRSNN Obs [8, 11]: 21%

From patent US20170354148A1, “SAFENED HERBICIDAL COMPOSITIONS CONTAINING HALAUXIFEN AND METHODS OF USE THEREOF IN BRASSICA SPECIES” (Dow AgroSciences LLC, priority 2016, published 2017)
